Structures can show the parent of a compound that is named as a salt.
Tests used:
[1] = rat; cited from earlier work
MYCN 3′UTR = experiment: luciferase reporter screening and counter-screening in CHP134-MYCN and CHP134-CTRL stable clones; format: cell-based, human; details: 24 h; for dependence of luciferase reporter upregulation on MYCN 3′UTR (counter-screening): 2 uM, CHP134-MYCN#3 versus CHP134-CTRL#19
Procedure: Reporter constructs containing the firefly luciferase reporter gene under the control of the CMV viral promoter and followed by either the whole MYCN 3′UTR (pGL4.26-MYCN3UTR) or the only SV40 poly(A) region (pGL4.26-CTRL) as a control were produced as disclosed above.
The CHP134 neuroblastoma cell line was used to generate stable transfection clones as disclosed in Example 3.
The screening was carried out in the CHP134-MYCN#3 stable clone with the Spectrum Collection small molecule library (MicroSource Discovery) composed of 2000 compounds stored at 10 mM in DMSO: 800 drugs that have been introduced in the US, 200 drugs that are limited in use to Europe and Japan, 580 natural products, 420 compounds with reported biological activities.
The assay was run in triplicates in 96-well plates. CHP134-MYCN stable clone cells were trypsinized, harvested and resuspended in culture medium. Tecan Multichannel arm (MCA96) of a Tecan EVO 200 robot (Tecan) was used to add 150 uL containing 15000 cells to the 96-well white CulturePlate-96 (Perkin Elmer).
After adhesion, the 10 mM compounds were diluted to 75 uM in PBS and immediately pipetted into the 96 wells in order to have a final concentration of 2 uM in the cells. Baseline controls were obtained treating the first column wells with PBS+DMSO at the same final concentration of the samples.
Luciferase activity was assessed using OneGlow Luciferase assay (Promega) according to the manufacturer's method, after 24 h of incubation at 37° with 5% CO2 and 100% relative humidity. Luminescence signal was read on a Tecan F200 multiplate reader (Tecan) integrated with the robot.
The majority of the hits (Table 1) were then checked for reproducibility and cytotoxic activity, the most interesting compounds were also tested for dose-responsiveness. The same hits were subsequently subjected to counter-screening with the stable clone CHP134-CTRL#19 expressing the control pGL4.26-CTRL plasmid, to segregate plasmid promoter-dependent transcriptional control effects.
To verify the specificity of the CPX effect for the MYCN 3′UTR and its clone-independency, the treatment was repeated with the CHP134-MYCN#3 clone and the CHP134-CTRL#19 clones and with two independent others, again stably transfected with the pGL4.26-MYCN3UTR and the pGL4.26-CTRL plasmids (respectively, CHP134-MYCN#1 and the CHP134-CTRL#17 clones).
Treatment with CPX 2 uM and measurement of luciferase activity with the OneGlow luciferase assay after 24 h provided a confirmation of the screening results (FIG. 3).

MYCN protein = experiment: immunofluorescence analysis of MYCN expression; format: cell-based, human; details: CHP134 cells, 24 h, different concentration of CPX
Procedure: To verify if the CPX enhancement effects on luciferase activity was accompanied by an increase in MYCN protein levels, an immunofluorescence analysis were performed on CHP134 cells plated in 96-well imaging plates (BD) and treated after adhesion for 24 h at different concentration of CPX. Cells were fixed by paraformaldehyde (PFA) 3.7%, permeabilized with 0.1% Triton X100, incubated with anti-MYCN mouse monoclonal antibody (ab16898, ABCAM) and stained with Alexafluor 488 rabbit anti-mouse secondary antibody.
Images were acquired by Operetta (Perkin Elmer) high content system and analyzed by the Harmony software.
Results represent fluorescence intensity in the nuclear area previously identified by DAPI staining.

CHP134 cells = experiment: Annexin V-FITC / PI apoptosis assay by flow cytometry; format: cell-based, human; details: CHP134, 24 and 48 hr, different concentrations
Procedure: c) Apoptosis assay was performed by flow cytometry. CHP134 cells were seeded 10 cm-dishes at the concentration 1×10^6 cells under standard culture conditions. In three days cells were treated with CPX at different concentration for 24 and 48 hr. The cells were then harvested, washed with cold PBS and processed for apoptosis assay using the Annexin V-FITC Apoptosis Detection Kit I (BD Biosciences) by following the instructions of the manufacturer. Briefly, cells were stained with FITC-Annexin V and PI (Propidium Iodide) in order to allow for the identification of death cells (FITC and PI positive), viable cells (FITC and PI negative) and pre-apoptotic cells (FITC positive and PI negative). Flow cytometric analysis was performed with the BD FACS Canto (BD Biosciences).
The results are shown, in FIG. 6. Numbers indicate the percentage of apoptotic/dead cells (P1) and pre-apoptotic cells (P2) respectively.

[2] = system: CHP134-MYCN#3 neuroblastoma cell clone; experiment: WST-1 cell cytotoxicity assay with selected hits at 2 uM; format: cell-based, human; details: MYCN-amplified neuroblastoma cells, 24 or 48 hours
Procedure: a) Cell cytotoxicity was performed by WST1 assay (Roche) following the manufacturer's instruction: 15000 cells were plated in each well of 96-well transparent Spectra Plate (Perkin Elmer) in 150 ul of complete media.
After adhesion, cells were treated with the selected drugs (Table 1) at 2 uM concentration and incubated at 37° with 5% CO2 and 100% relative humidity for 24 or 48 hours. At the defined endpoint, 15 uL of WST1 reagent were added and after 4 hours incubation at 37° with 5% CO2 and 100% relative humidity, plates were read for absorbance at 450 nm in a Tecan F200 multiplate reader (Tecan).
Different measurements were needed in order to calculate the percentage growth: time zero (Tz: that represent a measurement of the cell population at the time of drug addition), control growth (C: measures the growth of the cells treated with vehicle only after 24 or 48 hours) and test growth (Ti: that represent a measurement of the cell population after 24 or 48 hours). Percentage growth is calculated as:
[(Ti−Tz)/(C−Tz)]×100 eq. (2)
for concentrations for which Ti>=Tz;
for concentrations for which Ti<Tz.

[3] = humans; deferiprone: iron overload treatment in transfused thalassemia patients; doxorubicin: high dose infusional in tumor bearing patients; cited from earlier work
[4] = system: CHP134 and SiMa neuroblastoma cell lines; experiment: WST-1 dose-response cytotoxicity of ciclopirox olamine and piroctone olamine; format: cell-based, human; details: 0.33-100 μM, 48 hours
Procedure: After adhesion, cells were treated with different concentration of CPX ranging from 66 nM to 66 uM concentration and incubated at 37° with 5% CO2 and 100% relative humidity for 48 hours. At the defined endpoint, 15 ul of WST1 reagent were added and after 4 hours incubation at 37° with 5% CO2 and 100% relative humidity, plates were read for absorbance at 450 nm in a Tecan F200 multiplate reader (Tecan).
Different measurements were needed in order to calculate the percentage growth: time zero (Tz: that represent a measurement of the cell population at the time of drug addition), control growth (C: measures the growth of the cells treated with vehicle only after 48 hours) and test growth (Ti: that represent a measurement of the cell population after 48 hours treatment with CPX).
Percentage growth is calculated as above by means of eq.s (2) and (3).
In order to understand if compounds of similar molecular structure to that of CPX could be also effective in inducing a cytotoxic activity, we treated two neuroblastoma cell lines, CHP134 and SiMa, with increasing concentrations of both compounds (0.33-1-3.3-10-33-100 μM), and we measured cytotoxicity after 48 hours as detailed before.

SMILES | acute lethal dose 50 (LD50) [1] [mg/kg] | dependence of luciferase reporter upregulation on MYCN 3′UTR (counter-screening) (MYCN 3′UTR) | cytotoxicity [2] | plasma concentration [3] [µM] | also measured
Cc1cc(C2CCCCC2)n(O)c(=O)c1 [ciclopirox olamine, CICLOPIROX OLAMINE] | 2350 | truly dependent on MYCN 3′UTR | efficient cytotoxicity |  | luciferase expression (MYCN 3′UTR; CPX 2 uM, clones CHP134-MYCN#3, CHP134-MYCN#1, CHP134-CTRL#19, CHP134-CTRL#17): clone-independent, MYCN 3′UTR specific effect of increased luciferase expression; MYCN nuclear immunostaining (fluorescence intensity in the nuclear area) (MYCN protein): dose-dependent increase; effect on cell viability: percentage of apoptotic/dead (P1) and pre-apoptotic (P2) cells (CHP134 cells): increased percentage of apoptotic/dead cells
COc1cccc2c1C(=O)c1c(O)c3c(c(O)c1C2=O)C[C@@](O)(C(C)=O)C[C@@H]3O[C@H]1C[C@H](N)[C@H](O)[C@H](C)O1 [daunorubicin, DAUNORUBICIN] |  | truly dependent on MYCN 3′UTR | efficient cytotoxicity |  | 
Cc1c(O)c(=O)ccn1C [deferiprone, 3-hydroxy-1,2-dimethylpyridin-4-one] | 2000 |  |  | ≥ 250 | 
COc1cccc2c1C(=O)c1c(O)c3c(c(O)c1C2=O)C[C@@](O)(C(=O)CO)C[C@@H]3O[C@H]1C[C@H](N)[C@H](O)[C@H](C)O1 [doxorubicin, DOXORUBICIN] | 10.5 | truly dependent on MYCN 3′UTR | efficient cytotoxicity | 0.1 | 
COc1cccc2c1C(=O)c1c(O)c3c(c(O)c1C2=O)C[C@@](O)(C(=O)CO)C[C@@H]3O[C@H]1C[C@H](N)[C@@H](O)[C@H](C)O1 [epirubicin, EPIRUBICIN HYDROCHLORIDE] |  |  | efficient cytotoxicity |  | 
Cc1cc(CC(C)CC(C)(C)C)n(O)c(=O)c1.NCCO (stereo not shown) [piroctone olamine] |  |  |  |  | cytotoxic activity compared with CPX [4]: even stronger activity

Reference: patent US20130203822A1, “COMPOUNDS FOR TREATMENT OF TUMORS BEARING D[…] ONCOPROTEINS” (priority 2010, published 2013)
